Values of other authors as cited in US20050020546A1, “Pharmaceutical compositions comprising active vitamin D compounds” (Novacea, Inc., priority 2003, published 2005).

Conditions: compared with calcitriol

Hypercalcemic effect | Compound
reduced hypercalcemic effect | C=C1/C(=C\C=C2/CCC[C@]3(C)C([C@H](C)CC#CC(C)(C)O)=CC[C@@H]23)C[C@@H](O)C[C@@H]1O [Ro23-7553]
reduced hypercalcemic effect | C=C1/C(=C/C=C2\CCC[C@]3(C)C([C@H](C)CC#CC(O)(C(F)(F)F)C(F)(F)F)=CC[C@@H]23)C[C@@H](O)C[C@@H]1O [Ro24-5531]
